Assay type in all cases: in vivo
Test [1] relates to Spodoptera littoralis (Egyptian Cotton Leaf Worm). The experiment in a line: Spodoptera littoralis (Egyptian cotton leaf worm), cotton leaf discs, L1 larvae. Particulars: foliar, 72 h, application rate of 200 ppm, 3 days after infestation, read-out: control in at least one of the three categories (mortality, anti-feedant effect, or growth inhibition). On the procedure:
Cotton leaf discs were placed onto agar in 24-well microtiter plates and sprayed with aqueous test solutions prepared from 10′000 ppm DMSO stock solutions. After drying the leaf discs were infested with five L1 larvae. The samples were assessed for mortality, anti-feeding effect, and growth inhibition in comparison to untreated samples 3 days after infestation. Control of Spodoptera littoralis by a test sample is given when at least one of the categories mortality, anti-feedant effect, and growth inhibition is higher than the untreated sample.

Test [2] relates to Myzus persicae (Green Peach Aphid). The experiment in a line: Myzus persicae intrinsic activity, sucrose solution under Parafilm. Conditions: 120 h, application rate of 12.5 ppm, 5 days after infestation, read-out: control (assessed for mortality). On the procedure: Test compounds prepared from 10′000 ppm DMSO stock solutions were applied by pipette into 24-well microtiter plates and mixed with sucrose solution. The plates were closed with a stretched Parafilm. A plastic stencil with 24 holes was placed onto the plate and infested pea seedlings were placed directly on the Parafilm. The infested plate was closed with a gel blotting paper and another plastic stencil and then turned upside down. The samples were assessed for mortality 5 days after infestation.

Test [3] shares this test system. In words: Myzus persicae systemic activity, roots of pea seedlings in test solution. Conditions: 144 h, test rate of 24 ppm, 6 days after placing seedlings into test solutions. On the procedure:
Roots of pea seedlings infested with an aphid population of mixed ages were placed directly into aqueous test solutions prepared from 10′000 DMSO stock solutions. The samples were assessed for mortality 6 days after placing seedlings into test solutions.

In test [4] the test system is Chilo suppressalis (Striped Rice Stemborer). In words: Chilo suppressalis (striped rice stemborer), artificial diet in 24-well plates, L2 larvae. Particulars: 144 h, application rate of 200 ppm, 6 days after infestation, read-out: control in at least one of the three categories (mortality, anti-feedant effect, or growth inhibition). On the procedure: 24-well microtiter plates with artificial diet were treated with aqueous test solutions prepared from 10′000 ppm DMSO stock solutions by pipetting. After drying, the plates were infested with L2 larvae (6-8 per well). The samples were assessed for mortality, anti-feeding effect, and growth inhibition in comparison to untreated samples 6 days after infestation. Control of Chilo suppressalis by a test sample is given when at least one of the categories mortality, anti-feedant effect, and growth inhibition is higher than the untreated sample.

The test system of test [5] is Bemisia tabaci (Cotton White Fly). The experiment in a line: Bemisia tabaci feeding/contact activity, cotton leaf discs, adult white flies. Conditions: foliar, 144 h, application rate of 200 ppm, 6 days after incubation. On the procedure:
Cotton leaf discs were placed on agar in 24-well microtiter plates and sprayed with aqueous test solutions prepared from 10′000 ppm DMSO stock solutions. After drying the leaf discs were infested with adult white flies. The samples were checked for mortality 6 days after incubation.

In test [6] the test system is Myzus persicae (Green Peach Aphid). In words: Myzus persicae feeding/contact activity, eggplant leaf discs. Conditions: foliar, 144 h, application rate of 200 ppm, 6 days after infestation, read-out: growth inhibition. On the procedure: Eggplant leaf discs were placed onto agar in a 24-well microtiter plate and sprayed with aqueous test solutions prepared from 10′000 ppm DMSO stock solutions. After drying, the leaf discs were infested with an aphid population of mixed ages. The samples were assessed for mortality 6 days after infestation.

Test [7] concerns Plutella xylostella (Diamond Back Moth). The experiment in a line: Plutella xylostella (diamond back moth), artificial diet, eggs. Conditions: 192 h, application rate of 200 ppm, 8 days after infestation, read-out: effect in at least one of the two categories (mortality or growth inhibition). On the procedure: 24-well microtiter plates with artificial diet were treated with aqueous test solutions prepared from 10′000 ppm DMSO stock solutions by pipetting. After drying, Plutella eggs were pipetted through a plastic stencil onto a gel blotting paper and the plate was closed with it. The samples were assessed for mortality and growth inhibition in comparison to untreated samples 8 days after infestation.

The subject of test [8] is Diabrotica balteata (Corn Root Worm). In words: Diabrotica balteata (corn root worm), sprayed maize sprouts, L2 larvae. Particulars: 96 h, application rate of 200 ppm, 4 days after infestation, read-out: control in at least one of the two categories (mortality or growth inhibition). On the procedure:
Maize sprouts placed onto an agar layer in 24-well microtiter plates were treated with aqueous test solutions prepared from 10′000 ppm DMSO stock solutions by spraying. After drying, the plates were infested with L2 larvae (6 to 10 per well). The samples were assessed for mortality and growth inhibition in comparison to untreated samples 4 days after infestation.

On to `O=C(Nc1cccn(-c2ccccc2)c1=O)[C@H]1[C@@H]2CCCO[C@@H]21` (relative stereo) [Compound P4, rel-(1S,6S,7S)-N-(2-oxo-1-phenyl-3-pyridyl)-2-oxabicyclo[4.1.0]heptane-7-carboxamide], for which the percent control (mortality, anti-feedant effect or growth inhibition) at 200 ppm in test [1] was at least 80%.
As for `CNC(=O)c1ccccc1NC(=O)[C@H]1[C@@H]2OCCO[C@@H]21` [Compound P6], in test [2], the mortality at 12.5 ppm was at least 80%. In test [3], this molecule yielded a mortality at 24 ppm of at least 80%.
On to `O=C(O)[C@H]1[C@@H]2OCCO[C@@H]21` [Compound P7, (1α,6α,7α)-2,5-dioxabicyclo[4.1.0]heptane-7-carboxylic acid], for which the mortality at 12.5 ppm in test [2] is at least 80%. This molecule also registered a mortality at 24 ppm in test [3] of at least 80%. Also, in test [4], the percent control (mortality, anti-feedant effect or growth inhibition) at 200 ppm is at least 80%. Also, the mortality at 200 ppm in test [5] and in test [6] was at least 80% in each case.
With `CCOC(=O)[C@H]1[C@@H]2OCCO[C@@H]21` [Compound P8, Ethyl(1α,6α,7α)-2,5-dioxabicyclo[4.1.0]heptane-7-carboxylate], the mortality at 12.5 ppm in test [2] was at least 80%. Also, the percent effect (mortality or growth inhibition) at 200 ppm in test [7] was at least 80%. This molecule returned a mortality at 24 ppm in test [3] of at least 80%. Moreover, the percent control (mortality, anti-feedant effect or growth inhibition) at 200 ppm in test [4] was at least 80%. For the same molecule, the mortality at 200 ppm in test [5] and in test [6] was at least 80% each time. For the same molecule, the percent control (mortality or growth inhibition) at 200 ppm in test [8] was at least 80%.
`CN(C)C(=O)[C@H]1[C@@H]2OCCO[C@@H]21` [Compound P10, (1α,6α,7α)-N,N-dimethyl-2,5-dioxabicyclo[4.1.0]heptane-7-carboxamide]: in test [4], the percent control (mortality, anti-feedant effect or growth inhibition) at 200 ppm is at least 80%.
In test [3], `O=C(NOCc1ccccc1)[C@H]1[C@@H]2OCCO[C@@H]21` [Compound P13, (1α,6α,7α)-N-benzyloxy-2,5-dioxabicyclo[4.1.0]heptane-7-carboxamide] displayed a mortality at 24 ppm of at least 80%. Also, the mortality at 200 ppm in test [5] and in test [6] was at least 80% in each case.
In test [3], `O=C(NOCc1c(F)cccc1F)[C@H]1[C@@H]2OCCO[C@@H]21` [Compound P14, (1α,6α,7α)-N-[(2,6-difluorophenyl)methoxy]-2,5-dioxabicyclo[4.1.0]heptane-7-carboxamide] gave a mortality at 24 ppm of at least 80%. Also, the percent control (mortality, anti-feedant effect or growth inhibition) at 200 ppm in test [4] is at least 80%. Besides, the mortality at 200 ppm in test [6] was at least 80%.
Take `CCONC(=O)[C@H]1[C@@H]2OCCO[C@@H]21` [Compound P15, (1α,6α,7α)-N-ethoxy-2,5-dioxabicyclo[4.1.0]heptane-7-carboxamide]: the mortality at 12.5 ppm in test [2] is at least 80%. The percent effect (mortality or growth inhibition) at 200 ppm in test [7] was at least 80%. In test [3], this molecule returned a mortality at 24 ppm of at least 80%. The percent control (mortality, anti-feedant effect or growth inhibition) at 200 ppm in test [4] was at least 80%. In addition, the mortality at 200 ppm in test [6] was at least 80%.
For the molecule `Cc1cccc(NC(=O)[C@H]2[C@@H]3OCCO[C@@H]32)c1` [Compound P16, (1α,6α,7α)-N-(m-tolyl)-2,5-dioxabicyclo[4.1.0]heptane-7-carboxamide], in test [6], the mortality at 200 ppm was at least 80%.
As for `Cc1ccc(NC(=O)[C@H]2[C@@H]3OCCO[C@@H]32)c(F)c1` [Compound P17, (1α,6α,7α)-N-(2-fluoro-4-methyl-phenyl)-2,5-dioxabicyclo[4.1.0]heptane-7-carboxamide], the percent control (mortality or growth inhibition) at 200 ppm in test [8] is at least 80%.
In the case of `Cc1ccc(NC(=O)[C@H]2[C@@H]3OCCO[C@@H]32)cc1` [Compound P18, (1α,6α,7α)-N-(p-tolyl)-2,5-dioxabicyclo[4.1.0]heptane-7-carboxamide], the mortality at 24 ppm in test [3] was at least 80%. Moreover, in test [8], the percent control (mortality or growth inhibition) at 200 ppm is at least 80%.
On to `O=C(NCc1cc(Cl)ccc1Cl)[C@H]1[C@@H]2OCCO[C@@H]21` [Compound P19, (1α,6α,7α)-N-[(2,5-dichlorophenyl)methyl]-2,5-dioxabicyclo[4.1.0]heptane-7-carboxamide], for which, in test [8], the percent control (mortality or growth inhibition) at 200 ppm is at least 80%.
`O=C(NCC1CC1)[C@H]1[C@@H]2OCCO[C@@H]21` [Compound P28, (1α,6α,7α)-N-(cyclopropylmethyl)-2,5-dioxabicyclo[4.1.0]heptane-7-carboxamide]: the percent control (mortality, anti-feedant effect or growth inhibition) at 200 ppm in test [1] is at least 80%.
`Cc1ccccc1NC(=O)[C@H]1[C@@H]2OCCO[C@@H]21` [Compound P29, (1α,6α,7α)-N-(o-tolyl)-2,5-dioxabicyclo[4.1.0]heptane-7-carboxamide] came in with a mortality at 24 ppm in test [3] of at least 80%. Also, the percent control (mortality or growth inhibition) at 200 ppm in test [8] was at least 80%.
In turn, `Cn1ccc(NC(=O)[C@H]2[C@@H]3OCCO[C@@H]32)n1` [Compound P30, (1α,6α,7α)-N-(1-methylpyrazol-3-yl)-2,5-dioxabicyclo[4.1.0]heptane-7-carboxamide] came in with a mortality at 24 ppm in test [3] of at least 80%. In test [8], the percent control (mortality or growth inhibition) at 200 ppm was at least 80%.
Consider `O=C(NOC1CCC1)[C@H]1[C@@H]2OCCO[C@@H]21` [Compound P31, (1α,6α,7α)-N-(cyclobutoxy)-2,5-dioxabicyclo[4.1.0]heptane-7-carboxamide], for which, in test [3], the mortality at 24 ppm is at least 80%. In addition, the percent control (mortality, anti-feedant effect or growth inhibition) at 200 ppm in test [4] was at least 80%. In addition, in test [8], the percent control (mortality or growth inhibition) at 200 ppm is at least 80%. Also, in test [6], the mortality at 200 ppm is at least 80%.
`O=C(Nc1cc2ccccn2n1)[C@H]1[C@@H]2OCCO[C@@H]21` [Compound P33]: the percent control (mortality or growth inhibition) at 200 ppm in test [8] was at least 80%.
In turn, `Cn1cc(NC(=O)[C@H]2[C@@H]3OCCO[C@@H]32)cn1` [Compound P36, (1α,6α,7α)-N-(1-methylpyrazol-4-yl)-2,5-dioxabicyclo[4.1.0]heptane-7-carboxamide] showed a mortality at 24 ppm in test [3] of at least 80%. Moreover, the percent control (mortality or growth inhibition) at 200 ppm in test [8] is at least 80%. For the same molecule, the mortality at 200 ppm in test [6] was at least 80%.
As for `O=C(NC1CCOCC1)[C@H]1[C@@H]2OCCO[C@@H]21` [Compound P37, (1α,6α,7α)-N-tetrahydropyran-4-yl-2,5-dioxabicyclo[4.1.0]heptane-7-carboxamide], the mortality at 24 ppm in test [3] was at least 80%.
On to `Cn1nccc1NC(=O)[C@H]1[C@@H]2OCCO[C@@H]21` [Compound P38, (1α,6α,7α)-N-(2-methylpyrazol-3-yl)-2,5-dioxabicyclo[4.1.0]heptane-7-carboxamide], for which, in test [8], the percent control (mortality or growth inhibition) at 200 ppm was at least 80%.
Same read-out and setting: as for `CCC(NC(=O)[C@H]1[C@@H]2OCCO[C@@H]21)c1ccc(Cl)cc1` (stereo partly drawn) [Compound P40, (1α,6α,7α)-N-[1-(4-chlorophenyl)propyl]-2,5-dioxabicyclo[4.1.0]heptane-7-carboxamide], the figure is at least 80%.
`O=C(NCc1ccccc1)[C@H]1[C@@H]2OCCO[C@@H]21` [Compound P41, (1α,6α,7α)-N-benzyl-2,5-dioxabicyclo[4.1.0]heptane-7-carboxamide]: the percent control (mortality, anti-feedant effect or growth inhibition) at 200 ppm in test [4] was at least 80%.

The values above are taken from patent publication US20260271927A1, “PESTICIDALLY ACTIVE BICYCLIC COMPOUNDS” (SYNGENTA CROP PROTECTION AG, priority 2023, published 2026).
